In patent US6177425A, “Pyrrolopyrrolone derivatives” (Glaxo Wellcome Inc., priority 1997, dated 2001):
Where a name gives a salt, the structure may show the parent alone.

biological target: T1, human neutrophil elastase (Homo sapiens, UniProt P08246); experiment: In vitro Assays of Human Neutrophil Elastase; type: biochemical; details: purified human neutrophil elastase 11.8 nM, pH 8.6, 15 min incubation at 30° C., 0.6 mM MeO-succinyl-alanyl-alanyl-prolyl-valyl-p-nitroanilide, 405 nm
T1 sequence (P08246 30-247 limits assumed): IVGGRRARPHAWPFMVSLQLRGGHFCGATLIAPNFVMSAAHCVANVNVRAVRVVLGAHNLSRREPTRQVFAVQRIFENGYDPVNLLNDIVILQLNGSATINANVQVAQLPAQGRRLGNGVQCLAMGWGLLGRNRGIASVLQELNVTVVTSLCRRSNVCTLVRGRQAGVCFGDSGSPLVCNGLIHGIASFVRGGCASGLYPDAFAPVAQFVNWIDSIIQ
Procedure: In vitro Assays of Human Neutrophil Elastase Assay contents: 50 mM Tris/HCl (pH 8.6) 150 mM NaCl 11.8 nM purified human neutrophil elastase Suitable concentrations of compound under test diluted with water from a 10 mM stock solution in dimethylsulphoxide. Values above are final concentrations after the addition of substrate solution (see below). The mixture above is incubated for fifteen minutes at 30° C. at which time the remaining elastase activity is measured for 10 minutes in a BioTek 340i plate-reader, after the addition of 0.6 mM MeO-succinyl-alanyl-alanyl-prolyl-valyl-p-nitroanilide. The rate of increase in absorbance at 405 nm is proportional to elastase activity. Enzyme activity is plotted against concentration of inhibitor and an IC50 determined using curve fitting software. 1. The compounds of Examples 1 to 7 were tested in the in vitro elastase test described earlier in the description.

Row | SMILES | IC50 [nM]
1 | CCC[C@H]1C(=O)N(S(C)(=O)=O)[C@H]2CN(C(=O)C=CCN3CCCCC3)C[C@H]12 (relative stereo) [Example 1, rel-(3R,3aS,6aR)-1-Methanesulfonyl-5-(4-piperidin-1-yl-but-2-enoyl)-3-propyl-hexahydro-pyrrolo[3,4-b]pyrrol-2-one hydrochloride] | 227
2 | CCC[C@H]1C(=O)N(S(C)(=O)=O)[C@H]2CN(C(=O)CCCN3CCCCC3)C[C@H]12 (relative stereo) [Example 2, rel-(3R,3aS,6aR)-1-Methanesulfonyl-5-(4-piperidin-1-yl-butyryl)-3-propyl-hexahydro-pyrrolo[3,4-b]pyrrol-2-one] | 900
3 | CCC[C@H]1C(=O)N(S(C)(=O)=O)[C@H]2CN(S(=O)(=O)c3ccc(NC(C)=O)cc3)C[C@H]12 (relative stereo) [Example 3, rel-N-[4-(1-Methanesulfonyl-2-oxo-3R-propylhexahydro-(3aS,6aR)-pyrrolo[3,4-b]pyrrole-5-sulfonyl)-phenyl]acetamide] | 229

Continued, values first:

Row | IC50 [nM] | SMILES
4 | 296 | CCC[C@H]1C(=O)N(S(C)(=O)=O)[C@H]2CN(C(=O)c3ccc(CN4CCCCC4)cc3)C[C@H]12 (relative stereo) [Example 4, rel-(3R,3aS,6aR)-1-Methanesulfonyl-5-(4-piperidin-1-ylmethyl-benzoyl)-3-propyl-hexahydro-pyrrolo[3,4-b]pyrrol-2-one hydrochloride]
5 | 222 | CCC[C@H]1C(=O)N(S(C)(=O)=O)[C@H]2CN(C(=O)c3ccc(CN4CCOCC4)cc3)C[C@H]12 (relative stereo) [Example 5, rel-(3R,3aS,6aR)-1-Methanesulfonyl-5-(4-morpholin-4-ylmethyl-benzoyl)-3-propyl-hexahydro-pyrrolo[3,4-b]pyrrol-2-one hydrochloride]
6 | 146 | CCC[C@H]1C(=O)N(S(C)(=O)=O)[C@H]2CN(C(=O)c3cc(CN4CCOCC4)on3)C[C@H]12 (relative stereo) [Example 6, rel-(3R,3aS,6aR)-1-Methanesulfonyl-5-(5-morpholin-4-ylmethyl-isoxazole-3-carbonyl)-3-propyl-hexahydro-pyrrolo[3,4-b]pyrrol-2-one hydrochloride]
7 | 399 | CCC[C@H]1C(=O)N(S(C)(=O)=O)[C@H]2CN(C(=O)c3cc(CN(C)C)on3)C[C@H]12 (relative stereo) [Example 7, rel-(3R,3aS,6aR)-5-(5-Dimethylaminomethyl-isoxazole-3-carbonyl)-1-methanesulfonyl-3-propyl-hexahydro-pyrrolo[3,4-b]pyrrol-2-one hydrochloride]
